Source: paper PMC10119930, “Dual Molecules Targeting 5-HT6 and GABA-A Receptors as a New Approach to Combat Depression Associated with Neuroinflammation” (ACS Chemical Neuroscience, 2023)

Assays:
female Wistar rats = assay: Forced swim test in rats; format: in vivo, rat
Description: Naïve female Wistar rats (weighing 180–200 g) were used in the study. The animals were housed in groups of three to four in standard Makrolon cages (37 cm × 21 cm × 15 cm) under strictly controlled laboratory conditions (ambient temperature 21–24 °C, relative humidity 45–65%) with a 12/12 h light–dark regime (light on at 6:00 a.m. and off at 6:00 p.m.). Animals had unrestricted access to tap water and food (typical pellets). Prior the experiment the animals were randomly appointed to the group. The behavioral studies were accomplished between 8:00 a.m. and 5:00 p.m. with the researcher blind to the study. The experiments were performed according to protocols approved by the Local Ethical Committee in Krakow (Approval Number 147/2018), Poland. Housing and experimental procedures were conducted under the European Union Directive of September 22, 2010 (2010/63/EU) and Polish legislation regarding animal studies. All efforts were made to minimize animal suffering and the number of animals used in the study.
Vortioxetine (Sigma, Germany) and the tested compounds (16 and 6) were dissolved in 10% cyclodextrin and administered ip 30 min before the test or during 14 consecutive days, with the last injection 60 min before the test. 10% cyclodextrin was administrated to control group.
A modified forced swim test was carried out according to Detke et al.[50],[51] First, the animals were individually placed inside Plexiglas cylinders, which were 40 cm high and 18 cm in diameter, filled with water at a temperature of 23–25 °C for 15 min. Afterward, the rats were transferred to a Plexiglas box and kept under a 60 W bulb for 30 min to dry. The day after, exactly 24 h later, the rats were once again placed in the cylinder, and their duration of immobility, swimming, and climbing was observed and recorded during a 5 min. The swimming behavior involved energetic movements such as horizontal swimming around the cylinder, while climbing activity referred to upward movements of the forepaws along the swim chamber’s side. Immobility was recorded when the rat only made necessary movements to keep its head above the water. For each test, a fresh water was provided. Open field test in rats: The test was conducted as previously reported by our research group.[52] The test was performed in a darkened room employing the Motor Monitor System (Campden Instruments, Ltd., U.K.). The system was equipped with two SmartFrame Open Field stations, each measuring 40 cm × 40 cm × 38 cm and consisting of 16 × 16 beams. These stations were placed inside sound-attenuating chambers and connected to a PC software using […]. The animals, belonging to either the vehicle-injected or drug-injected group, were individually positioned at the center of the station. The Motor Monitor System, which was automated, recorded the animal’s ambulation in both the X and Y axes, as well as the number of rearing and peeping episodes. Additionally, the total distance traveled by each animal during the 5 min test period was also recorded. Statistical analysis: Results are presented as the mean ± SEM values. They were estimated using one-way analysis of variance (ANOVA), followed by Newman–Keuls post hoc or unpaired two-tailed Student t test. Statistical significance was considered when p < 0.05 for differences between groups.

Plasma stability assay = format: in vitro ADME, rat
Description: The quantitative HPLC analyses were acquired using Waters Alliance e2695 separations module (Waters, Milford, CT, USA) containing 2998 photodiode array (PDA), a detector (Waters, Milford, CT, USA), and the SpeedROD RP-18e 50–4.6 mm column (Merck, KGaA, Darmstadt, Germany). The temperature of the column was preserved at 30 °C. […] Each sample was injected at a volume of 10 μL in triplicate. […] The stock solutions were mixed with methanol and diluted, resulting in various solutions with concentrations ranging from 1.0 to 0.125 μg/mL. These solutions were then utilized to generate calibration curves by plotting AUC versus concentration in μg/mL. The examined molecules (2 mg) were dissolved in 1 mL of Dulbecco’s phosphate buffered saline (DPBS). The mixture was then continuously agitated at 22 °C for 24 h using a thermoshaker. Following this period, the mixtures were filtered through a cellulose acetate syringe filter (with a pore size of 0.22 μm), moved to a chromatographic vial, and analyzed. To quantify the investigated compounds, the areas beneath their respective peaks on DAD chromatograms were employed. Solubility was calculated using the calibration curves. Chemical stability assay: Stock solution of 16 in DMSO (10 mg/mL) was used. Next, 25 μL of stock solution was mixed with 975 μL of PBS (Dulbecco’s phosphate-buffered saline, Sigma, Poland). […] HPLC analyses were used to quantify the percentage of molecules that remained at each time point relative to the 0 min time point. Brain tissue stability assay: […] Then, 50 μL of the stock solution was combined with 50 μL of ice-cold 50 mM Tris-HCl buffer (pH 7.4) and 150 μL of brain homogenate (suspended in 20 volumes of 50 mM Tris-HCl buffer, ice cold, pH 7.4). The mix was then incubated at 37 °C and quenched at several time points. To terminate the reaction mixture, 250 μL of the appropriate reaction mixture was mixed with 1000 μL of MeCM in the Eppendorf Tube. Following 10 min of shaking (1500 rpm), samples were centrifuged (10 000 rpm, 10 min, 4 °C) and the acquired supernatant was collected. Before conducting HPLC analysis, the supernatant was filtered via a cellulose acetate syringe filter with a pore size of 0.45 μm and then transferred to a chromatographic vial. HPLC analysis was used to determine the percentage of the tested molecule remaining at each time point, relative to the 0 min time point. Plasma stability assay was performed as described previously.[45] Frozen rat plasma (Wistar) was thawed. […] The samples were collected at relative time points. The reaction was terminated by adding 1200 of μL acetonitrile/methanol mixture (50:50, v/v). The samples were centrifuge at 25 000 rpm for 10 min. HPLC analysis was used to determine the percentage of the tested molecule remaining at each time point relative to the 0 min time point. All the experiments were performed in duplicate.

[1] = acute, 3 mg/kg ip 30 min before test

Compound: Cc1c(OCc2ccccc2)cccc1N1CCN(CCOC(=O)CCCN)CC1.Cl.Cl [Compound 16, 1-(2-((4-Ammoniobutanoyl)oxy)ethyl)-4-(3-(benzyloxy)-2-methylphenyl)piperazin-1-ium Dichloride]
- duration of swimming (female Wistar rats; [1]): without affecting the duration of swimming
- increase of climbing behaviors vs control group (female Wistar rats; [1]): 336.5%
- reduction of immobility time vs control group (female Wistar rats; [1]): 31.9%
- decrease of immobility time vs vehicle-treated group (female Wistar rats; subchronic, 3 mg/kg ip for 14 days, test 60 min after last injection): 22.9%
- % compound remaining (rat plasma, 37 °C) (Plasma stability assay; 0 min): 100 ± 0.1%
- % compound remaining (rat plasma, 37 °C) (Plasma stability assay; 15 min): 97.21 ± 0.8%
- % compound remaining (rat plasma, 37 °C) (Plasma stability assay; 30 min): 90.35 ± 1.4%
- % compound remaining (rat plasma, 37 °C) (Plasma stability assay; 60 min): 79.65 ± 2.5%
- % compound remaining (rat plasma, 37 °C) (Plasma stability assay; 120 min): 45.37 ± 2.2%
- % compound remaining (rat plasma, 37 °C) (Plasma stability assay; 240 min): 21.46 ± 1.2%
